Measured values published in PMC7614367, “Itraconazole inhibits endothelial cell migration by disrupting inositol pyrophosphate-dependent focal adhesion dynamics and cytoskeletal remodeling” (Biomedicine & Pharmacotherapy, 2023).

Legend:
[1] = target: T1, FAK (GST-FAK, flag-FAK) (Homo sapiens, UniProt Q05397); assay: bead pull-down of GST-FAK by flag-FAK, western blot; assay type: binding; settings: CF2 (10 μM) competing with 5-InsP7 (5 μM)
T1 construct: gene PTK2; full-length FAK, GST- or flag-tagged, produced in HEK293 cells; tags kept; endogenous HUVEC protein also pulled down

[2] = target: T2, endogenous FAK (MEF) (Mus musculus, UniProt P34152); assay: affinity resin pull-down from cell lysate, western blot; assay type: biochemical; settings: immobilised 5-PCP-InsP5 resin
T2 construct: gene Ptk2; endogenous full-length FAK in lysates of WT and IP6K1 KO mouse embryonic fibroblasts

[3] = target: T3, coronin (GST-coronin) (Homo sapiens, UniProt Q9BR76); assay: affinity resin pull-down of purified protein, western blot; assay type: binding; settings: immobilised 5-PCP-InsP5 resin; 4 °C overnight; also endogenous protein from HUVEC lysate
T3 construct: gene CORO1B; GST-fused coronin produced in HEK293 cells, eluted with glutathione; tag kept; endogenous HUVEC protein also pulled down

[4] = target: T1, FAK (GST-FAK, flag-FAK); assay: as above; assay type: binding; settings: immobilised 5-PCP-InsP5 resin; 4 °C overnight; also endogenous protein from HUVEC lysate; free 5-PCP (10 μM) with 5-InsP7 (5 μM) in a FAK dimerization competition assay
[5] = target: T4, p34 (flag-p34) (Homo sapiens, UniProt O15144); assay: as above; assay type: binding; settings: immobilised 5-PCP-InsP5 resin; 4 °C overnight; also endogenous protein from HUVEC lysate
T4 construct: gene ARPC2; tag kept; endogenous HUVEC protein also pulled down

T1 sequence (Q05397 2-1052): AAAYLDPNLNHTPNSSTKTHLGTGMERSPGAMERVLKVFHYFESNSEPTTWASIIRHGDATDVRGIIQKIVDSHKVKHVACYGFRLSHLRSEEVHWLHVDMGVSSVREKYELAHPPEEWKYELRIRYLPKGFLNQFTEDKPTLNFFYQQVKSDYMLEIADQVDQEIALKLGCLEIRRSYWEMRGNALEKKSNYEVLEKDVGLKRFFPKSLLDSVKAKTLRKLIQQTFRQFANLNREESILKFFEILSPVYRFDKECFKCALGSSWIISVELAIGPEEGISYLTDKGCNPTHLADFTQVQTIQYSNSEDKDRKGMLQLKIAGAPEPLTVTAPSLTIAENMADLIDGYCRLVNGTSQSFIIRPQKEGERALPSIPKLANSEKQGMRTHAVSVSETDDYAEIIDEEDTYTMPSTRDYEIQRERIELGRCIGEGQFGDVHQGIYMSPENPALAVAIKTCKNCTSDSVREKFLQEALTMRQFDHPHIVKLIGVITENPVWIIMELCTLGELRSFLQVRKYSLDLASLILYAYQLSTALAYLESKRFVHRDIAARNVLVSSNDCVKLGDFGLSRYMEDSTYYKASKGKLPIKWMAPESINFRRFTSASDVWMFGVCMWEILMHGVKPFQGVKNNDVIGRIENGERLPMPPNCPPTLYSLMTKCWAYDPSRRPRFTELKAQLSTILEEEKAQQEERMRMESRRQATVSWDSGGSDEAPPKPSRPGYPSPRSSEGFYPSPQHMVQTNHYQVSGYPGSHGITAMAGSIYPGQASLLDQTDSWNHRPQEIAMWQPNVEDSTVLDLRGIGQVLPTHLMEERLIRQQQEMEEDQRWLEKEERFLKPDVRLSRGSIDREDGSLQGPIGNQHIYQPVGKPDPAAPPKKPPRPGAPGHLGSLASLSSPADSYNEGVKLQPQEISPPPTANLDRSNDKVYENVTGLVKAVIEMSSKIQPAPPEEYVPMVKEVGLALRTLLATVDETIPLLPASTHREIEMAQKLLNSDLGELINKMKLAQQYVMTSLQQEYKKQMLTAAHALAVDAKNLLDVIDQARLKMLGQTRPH
T2 sequence (P34152 2-1052): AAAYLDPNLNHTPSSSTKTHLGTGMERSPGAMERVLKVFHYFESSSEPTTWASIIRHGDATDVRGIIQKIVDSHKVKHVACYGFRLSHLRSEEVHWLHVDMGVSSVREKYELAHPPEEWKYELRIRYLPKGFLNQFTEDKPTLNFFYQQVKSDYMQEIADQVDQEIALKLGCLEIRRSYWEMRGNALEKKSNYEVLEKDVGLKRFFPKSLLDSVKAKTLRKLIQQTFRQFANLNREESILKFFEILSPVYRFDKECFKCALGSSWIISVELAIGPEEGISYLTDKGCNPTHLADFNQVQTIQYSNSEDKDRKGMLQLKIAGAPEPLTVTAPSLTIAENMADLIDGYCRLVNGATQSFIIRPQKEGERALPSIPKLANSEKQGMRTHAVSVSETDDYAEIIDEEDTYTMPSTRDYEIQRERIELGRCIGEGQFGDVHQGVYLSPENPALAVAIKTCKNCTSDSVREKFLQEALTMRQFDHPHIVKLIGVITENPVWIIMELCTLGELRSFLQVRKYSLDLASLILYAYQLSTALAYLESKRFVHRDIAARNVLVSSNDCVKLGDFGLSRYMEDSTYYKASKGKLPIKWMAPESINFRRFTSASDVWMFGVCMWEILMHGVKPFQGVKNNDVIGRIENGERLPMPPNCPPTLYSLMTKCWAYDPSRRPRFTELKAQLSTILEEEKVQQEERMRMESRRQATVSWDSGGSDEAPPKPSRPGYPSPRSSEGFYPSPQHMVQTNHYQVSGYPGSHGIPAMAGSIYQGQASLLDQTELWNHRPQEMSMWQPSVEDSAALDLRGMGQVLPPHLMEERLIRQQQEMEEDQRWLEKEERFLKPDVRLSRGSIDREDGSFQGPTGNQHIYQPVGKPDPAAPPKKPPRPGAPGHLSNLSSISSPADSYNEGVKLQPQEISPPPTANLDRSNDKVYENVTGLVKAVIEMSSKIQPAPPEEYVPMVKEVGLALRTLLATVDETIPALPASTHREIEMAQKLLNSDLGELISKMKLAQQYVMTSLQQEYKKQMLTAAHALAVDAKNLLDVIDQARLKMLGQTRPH
T3 sequence (Q9BR76 whole entry, the tested form may be a part): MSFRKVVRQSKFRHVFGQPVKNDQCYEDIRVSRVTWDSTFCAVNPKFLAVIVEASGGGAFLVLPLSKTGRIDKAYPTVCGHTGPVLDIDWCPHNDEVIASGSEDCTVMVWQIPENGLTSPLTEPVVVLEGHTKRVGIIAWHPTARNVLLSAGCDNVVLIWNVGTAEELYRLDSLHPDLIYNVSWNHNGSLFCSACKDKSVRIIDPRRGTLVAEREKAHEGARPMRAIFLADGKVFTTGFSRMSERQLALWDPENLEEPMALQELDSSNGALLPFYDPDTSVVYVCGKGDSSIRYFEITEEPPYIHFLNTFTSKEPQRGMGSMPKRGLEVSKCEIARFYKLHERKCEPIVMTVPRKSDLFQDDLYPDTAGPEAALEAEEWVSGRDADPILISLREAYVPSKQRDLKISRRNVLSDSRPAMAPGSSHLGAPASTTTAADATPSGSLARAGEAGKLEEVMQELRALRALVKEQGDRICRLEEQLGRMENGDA

Compound	block of 5-InsP7-mediated FAK dimerization [1]	affinity resin pull-down from cell lysate, western blot [2]	affinity resin pull-down of purified protein, western blot [3]	affinity resin pull-down of purified protein, western blot [4]	affinity resin pull-down of purified protein, western blot [5]
O=C(N[C@@H]1[C@@H](OP(=O)(O)O)[C@H](OP(=O)(O)O)[C@H](OP(=O)(O)O)[C@H](OP(=O)(O)O)[C@H]1OP(=O)(O)O)C(F)(F)P(=O)(O)O [5-PCF2Am-InsP5]	5-PCP and CF2 compete with 5-InsP7 to block 5-InsP7-mediated FAK dimer formation	–	–	–	–
O=P(O)(O)CP(=O)(O)O[C@H]1[C@H](OP(=O)(O)O)[C@@H](OP(=O)(O)O)[C@@H](OP(=O)(O)O)[C@@H](OP(=O)(O)O)[C@@H]1OP(=O)(O)O [5-PCP-InsP5]	–	5-PCP resin pulls down endogenous FAK in WT and IP6K1 KO MEF cells	pulls down purified p34 and coronin in an in vitro protein binding assay	5-PCP resin pulls down purified full length (FL) FAK and FAK FERM domain	pulls down purified p34 and coronin in an in vitro protein binding assay
